# Source: patent publication US9924712B2, “Liquid concentrate formulation containing a pyripyropene insecticide II” (BASF SE, priority 2012, dated 2018)
# Assay: Dissolution and solvate precipitation of pyripyropene derivative I in propylene carbonate (Alkylene carbonate A)
# Assay type: physicochemical
smiles,measurement,setting,value
C[C@]1(COC(=O)C2CC2)[C@@H]2C[C@H](O)[C@@]3(C)Oc4cc(-c5cccnc5)oc(=O)c4[C@H](O)[C@@H]3[C@@]2(C)CC[C@@H]1OC(=O)C1CC1 [pyripyropene derivative I],Appearance of solution on continued agitation,"10 wt % and 20 wt % in propylene carbonate, after additional approximately 2 hours of agitation, precipitate crystalline by microscopy",started to turn cloudy
same,Time for complete dissolution,"10 wt % and 20 wt % solutions in Alkylene carbonate A (propylene carbonate), with agitation, both cases",about 1 hour
